Source: patent publication US20080118494A1, “Compositions For Detection Of Latent Hiv Reactivation And Methods Of Using The Same” (priority 2004, published 2008)

Tests used:
Assay type in all cases: cell-based
[1] = tested on: latent HIV-1 infection in bulk population of latently infected JLTRG cells; assay: Reactivation of latent HIV-1 in a bulk population of latently infected cells, flow cytometry; conditions: optimal concentration of each compound, day 57 bulk population, 100,000 viable cells counted
Procedure: (A) Jurkat cells were infected with an EGFP expressing, replication incompetent reporter virus and the level of productive HIV-1 infection at each indicated time-point was directly assessed by flow cytometric analysis for EGFP expression (untreated; black circles). Levels of initial non-productive and later on latent HIV-1 infection was determined 24 hours following TNF-α stimulation (black squares). The results represent the mean ±S.D. of three independent experiments.
a) Quantification of the HIV-1 reactivating capabilities of test compounds. Following infection, HIV-1 integrates into the cellular genome. Integration is random, although HIV-1 preferentially integrates into euchromatin structures. Latency development can be thus influenced by a multitude of factors that alter gene expression or DNA structure, such as divergent gene expression patterns or the cell cycle stage at the time point of viral integration. Although the reporter cell lines are representative for the majority of latently infected cells and reliably identify most reactivating agents during the screening effort, they can not allow quantification of the capability of the individual compounds to reactivate HIV-1 infection from a diverse population of latently infected cells. To account for the influence that the side of integration of a latent virus can have on a compounds ability to reactivate the virus, a bulk population of latently infected cells (FIG. 7) was established. Following infection of JLTRG cells with HIV-1 NL43, a rapid increase of the level of infection can be observed. On day 3, an average 27% of the cells were productively infected. […] Until day 15, the percentage of productively infected cells rapidly declined to 3% of the overall cell population. At this time point, an additional 5% of the cells were non-productively infected. […] Since 1×10^6 cells were initially infected, and virus mediated inhibition of cell proliferation influences the relative level of infection over time can be excluded, it can be calculated that the latently infected cell population should consist of […] individual latently infected cells. This bulk population of cells allows quantification of the capability of the respective compounds to reactivate latent HIV-1. […] Each compound was titrated over a two-log concentration range to allow for optimal reactivation. The results for the optimal concentration of each compound are depicted in FIG. 7B. […] TNF-α (10 ng/ml) reactivated latent HIV-1 infection in 5% of the cells, whereas the DNA histone deacetylase inhibitors trichostatin A (TSA) and sodium butyrate (NaBu) reactivated latent HIV-1 infection in only 3% or 2.5% of the cells, respectively. To achieve an accurate estimate of the differences in the capability of different agents to reactivate HIV-1 infection it is important to run a sufficiently high number of cells. For this flow cytometry based analysis, 100,000 cells viable per sample were counted.

[2] = tested on: HIV-1 Tat / HIV-1 transcription in J89GFP cells; assay: Suppression of TNF-α mediated HIV-1 reactivation in J89GFP cells by Tat inhibitor; conditions: 10 μM
Procedure: EGFP expression following TNF-α (1 ng/ml) mediated reactivation of latent HIV-1 infection in J89GFP cells in the presence or absence of Ro24-7429 (10 μM). Following stimulation, area (A+B) represents the total amount of virus produced over a two day period of time, whereas area B represents the amount of virus produced in the presence of Ro24-7429. Results represent the mean ±S.D. of three independent experiments.
The latently HIV-1 infected reporter T cell line J89GFP (Kutsch et al., 2002) was pretreated with the respective compound and then stimulated with various concentrations of TNF-α. As reactivation of latent HIV-1 is dependent on Tat activity, a sufficiently potent Tat inhibitor would suppress HIV-1 reactivation as indicated by […] in EGFP fluorescence. […] Levels of reactivation with respect to the percentage of HIV-1 positive cells, as well as the EGFP MCF intensity were identical. Whereas EGFP expression in TNF-α treated J89GFP in the absence of Ro24-7429 continued to increase until 96 h post stimulation, EGFP MCF peaked after 48 h, reaching 50% of the maximal EGFP MCF seen in the absence of Ro24-7429, and the slowly declined again (FIG. 14). The observed increase of EGFP fluorescence in TNF-α treated J89GFP cells can be described as an invasion kinetics of the first order, whereas the kinetics of EGFP expression following TNF-α mediated reactivation of HIV-1 in the presence of Ro24-7429 can be best described by a Bateman function, that describes onset and elimination of HIV-1 expression. Again, integration of the equation describing each curve allows for the determination of the relative amount of virus being produced in the critical 2 days time frame. Area (A+B) represents the amount of virus produced following reactivation, and Area B represents the amount of virus produced in the presence of Ro24-7429.

[3] = tested on: CD28 mediated HIV-1 reactivation in J89GFP cells; assay: Inhibition of activating anti-CD28 antibody (5D10) mediated HIV-1 reactivation in J89GFP cells; conditions: J89GFP pretreated, then stimulated with 5D10; inhibitors 1 μM
Procedure: The results are representative for five independent experiments. […] (C) J89GFP cells were pretreated for two hours with the specific ERK-inhibitor U0126 (control: U0124) or the specific p38-inhibitor SB202190 (control: SB202474) and then stimulated with activating anti-CD28 antibody 5D10 (1 μg/ml). Level of reactivation was measured as %-EGFP^+ cells using flow cytometry. Results represent the mean ±S.D. of three independent experiments.

JEGFP cells = conditions: 10,000 JEGFP cells/well, 384-well plate, increasing amounts of compound
Procedure: JEGFP cells were seeded at a cell density of 1×10^4 cells/well into a 384-well plate and left untreated (Control) or treated with a low concentration of daunorubicin (0.0001 μg/ml). EGFP fluorescence as a measure of cell proliferation was then determined over a period of four days.
Influence of altered cell proliferation, cell viability and compound auto-fluorescence on EGFP fluorescence intensity. […] For example, compounds that have fluorochrome characteristics in the same excitation and emission range as EGFP can unspecifically increase the fluorescence signal and can cause false positive hits. On the other hand, too high concentrations of compounds that can reactivate latent HIV-1 infection, but within the chosen concentration range, either inhibit cell proliferation or decrease cell viability can result in false negative hits. […] Compounds that unspecifically increase EGFP expression in the latently infected LWI cells due to their fluorochrome characteristics also increase EGFP fluorescence in these cells, and can be detected as false positive hits. […] As JEGFP cells divide every 24 h and EGFP fluorescence intensity, when measured by plate based fluorometry, directly correlates with the cell density (FIG. 5), any influence of the tested compound on cell proliferation or cell viability can be immediately indicated by a drop in EGFP fluorescence. […]

CCCC(=O)[O-].[Na+] [NaBu, sodium butyrate]
cells in which latent HIV-1 infection was reactivated [1]: 2.5%

CNC1=Nc2ccc(Cl)cc2C(c2ccc[nH]2)=NC1 [Ro24-7429]
influence on the level of HIV-1 expression during the first 24 h ([2]; TNF-α 1 ng/ml, first 24 h): had no influence on the level of HIV-1 expression
inhibition of virus production ([2]; TNF-α 1 ng/ml, initial 2 days period, from integration of EGFP curves): 20%
peak EGFP MCF relative to maximal EGFP MCF in the absence of inhibitor ([2]; TNF-α 1 ng/ml, peak after 48 h): 50%
suppression of reactivation of latent HIV-1 ([2]; in the presence of 1 ng/ml TNF-α): not capable of suppressing reactivation of latent HIV-1 infection

Oc1ccc(-c2nc(-c3ccncc3)c(-c3ccc(F)cc3)[nH]2)cc1 [SB202190]
effect on HIV-1 reactivation by activating anti-CD28 antibody [3]: efficiently abrogated the activating effect of the antibody and blocked HIV-1 reactivation

CC(/C=C/C(=O)NO)=C\[C@@H](C)C(=O)c1ccc(N(C)C)cc1 [TSA, trichostatin A]
cells in which latent HIV-1 infection was reactivated [1]: 3%

N#CC(=C(/N)Sc1ccccc1N)/C(C#N)=C(\N)Sc1ccccc1N [U0126]
effect on HIV-1 reactivation by activating anti-CD28 antibody [3]: efficiently abrogated the activating effect of the antibody and blocked HIV-1 reactivation

COc1cccc2c1C(=O)c1c(O)c3c(c(O)c1C2=O)C[C@@](O)(C(C)=O)C[C@@H]3O[C@H]1C[C@H](N)[C@H](O)[C@H](C)O1 [daunorubicin]
EGFP expression as measure of cell proliferation/viability (JEGFP cells): sharp drop in EGFP expression

CC(=O)O[C@@]12C[C@@H](C)[C@@]3(O)[C@@H](C=C(CO)C[C@]4(O)C(=O)C(C)=C[C@@H]34)[C@@H]1C2(C)C [prostratin]
cells in which latent HIV-1 infection was reactivated [1]: 6%
